Laboratory results taken from US8241674B2, “Methods and compositions for heavy metal detoxification” (priority 2007, dated 2012).
Where two headings read alike, the source gives them in different places.

Key:
NQO1 enzyme = test: NADPH quinone oxido reductase (NQO1) activity assay in RL-34 cell lysate after treatment; conditions: RL-34 cells, 2 days, ratio of treated over vehicle control
[1] = tested on: heme oxygenase (HO-1) luciferase reporter; test: Heme oxygenase (HO-1) luciferase reporter in HepG2 cells; conditions: HepG2 cell line; for Fold Induction of heme oxygenase luciferase activity: 24 hours, ratio over vehicle control, concentration not given; for expression of heme oxygenase promoter activity (in words): thirty percent induction over DMSO control considered active
GST enzyme = test: GST activity assay in RL-34 cell lysate after treatment; assay type: cell-based, rat; conditions: RL-34 cells, 2 days, ratio over DMSO control
[2] = tested on: phase II enzymes (GSTA1 and NQO1)
[3] = tested on: metallothionein (MT 1, 2)
Nrf-2 = test: Western blot of Nrf-2 in the nuclear fraction of HepG2 cells; assay type: cell-based, human; conditions: 4 hours, FIGS. 3 and 4
Method: Western blot detection—The HepG2 cell line was cultured as above and test compounds were added for four hours, after which the cells were lysed and the nuclear fraction was isolated (Dignam, J. D., R. M. Lebovitz, and R. G. Roeder, Nucleic Acids Res, 11(5): 1475-89, 1983). Total protein concentration was determined using the Bicinchoninic Acid Kit (Sigma). Total cell lysates (60 μg total protein) were electrophoresed and detection of Nrf-2 was performed using primary antibody incubation overnight at 4° C. (Santa Cruz Biotechnology, Inc, Santa Cruz, Calif.). Secondary antibody linked to horseradish peroxidase was incubated for one h (GE Healthcare, Piscataway, N.J.), after which proteins were visualized using the enhanced chemiluminescence (ECL) system. Densitometry was performed using Kodak Molecular Imaging Software v.4.0 (Eastman Kodak Company, Rochester, N.Y.) measuring the net intensity of the band.

`CC(C)=CCC/C(C)=C/CC/C(C)=C/CC/C(C)=C/CC1=C(C)C(=O)c2ccccc2C1=O` [Vitamin K2] was tested, and the “Induction of NQO1 activity” value (NQO1 enzyme; 20 ug/mL) was 0.9.

`O=c1oc2c(O)c3oc(=O)c4c5c(oc(=O)c6cc(O)c(O)c(O)c65)c(O)c5oc(=O)c(c2c2c(O)c(O)c(O)cc12)c3c54` [Terminalin] was tested, and the “Fold Induction of heme oxygenase luciferase activity” value [1] was 1.7 fold, the “expression of heme oxygenase promoter activity (in words)” value (“expression” for short) [1] was “induced” and the “Fold Induction of GST activity” value (GST enzyme; 25 ug/mL) was 1.0 fold. For the same compound, the “Induction of NQO1 activity” value (NQO1 enzyme; 25 ug/mL) was 1.0.

With `COc1cc(C=CC(=O)CC(=O)C=Cc2ccc(O)c(OC)c2)ccc1O` [Curcumin, 1,7-Bis(4-hydroxy-3-methoxyphenyl)hepta-1,6-diene-3,5-dione] the “HMOX1 Ratio to DMSO” value (heme oxygenase (HMOX1); HepG2 cells, 8 hours, 5 μg/ml) was 2.09, the “Fold Induction of heme oxygenase luciferase activity” value [1] was 6.1 fold and the “expression” value [1] was “induced”. The “Fold Induction of GST activity” value (GST enzyme; 5 ug/mL) was 1.0 fold, the “Phase II (ave) Ratio to DMSO” value ([2]; HepG2 cells, 8 hours, 5 μg/ml, average of GSTA1 and NQO1) was 1.15 and the “Induction of NQO1 activity” value (NQO1 enzyme; 5 ug/mL) was 4.6. For the same compound, the “MT 1,2 (ave) Ratio to DMSO” value ([3]; HepG2 cells, 8 hours, 5 μg/ml) was 0.90.

With `COc1ccc2cc3[n+](cc2c1OC)CCc1cc2c(cc1-3)OCO2` [Berberine] the “Fold Induction of GST activity” value (GST enzyme; 20 ug/mL) was 1.0 fold and the “Induction of NQO1 activity” value (NQO1 enzyme; 20 ug/mL) was 1.4.

For `COc1cc(O)c(CC=C(C)C)c(O)c1C(=O)/C=C/c1ccc(O)cc1` [Xanthohumol], the “HMOX1 Ratio to DMSO” value (heme oxygenase (HMOX1); HepG2 cells, 8 hours, 1 μg/ml) was 1.11, the “Fold Induction of heme oxygenase luciferase activity” value [1] was 5.4 fold and the “expression” value [1] was “induced”. The “Fold Induction of GST activity” value (GST enzyme; 1 ug/mL) was 1.4 fold, the “Phase II (ave) Ratio to DMSO” value ([2]; HepG2 cells, 8 hours, 1 μg/ml, average of GSTA1 and NQO1) was 1.02 and the “Induction of NQO1 activity” value (NQO1 enzyme; 1 ug/mL) was 3.7. The “MT 1,2 (ave) Ratio to DMSO” value ([3]; HepG2 cells, 8 hours, 1 μg/ml) was 0.90.

In the case of `C/C=C1/[C@H](O[C@@H]2O[C@H](CO)[C@@H](O)[C@H](O)[C@H]2O)OC=C(C(=O)OC)[C@H]1CC(=O)OCCc1ccc(O)c(O)c1` [Oleuropein], the “Fold Induction of GST activity” value (GST enzyme; 20 ug/mL) is reported as 1.0 fold and the “Induction of NQO1 activity” value (NQO1 enzyme; 20 ug/mL) is reported as 1.0.

For `C[C@]12CC[C@H](O)CC1=CC[C@@H]1[C@@H]2CC[C@]2(C)C(=O)CC[C@@H]12` [DHEA], the “Induction of NQO1 activity” value (NQO1 enzyme; 20 ug/mL) was 1.1.

For Hyaluronic acid, the “Induction of NQO1 activity” value (NQO1 enzyme; 20 ug/mL) was 0.9.

For `[Cl][Cd][Cl]` [CdCl2, reference compound], the “HMOX1 Ratio to DMSO” value (heme oxygenase (HMOX1); HepG2 cells, 8 hours, 40 uM) was 21.23, the “HMOX1 gene induction (in words)” value (heme oxygenase (HMOX1); HepG2 cells, controls) was “induce” and the “Phase II (ave) Ratio to DMSO” value ([2]; HepG2 cells, 8 hours, 40 uM, average of GSTA1 and NQO1) was 0.94. The “phase II gene induction (in words)” value ([2]; HepG2 cells, controls) was “unable to increase”, the “MT 1,2 (ave) Ratio to DMSO” value ([3]; HepG2 cells, 8 hours, 40 uM) was 83.31 and the “MT gene induction (in words)” value ([3]; HepG2 cells, controls) was “induce”.

`O=c1c(O)c(-c2ccc(O)c(O)c2)oc2cc(O)cc(O)c12` [Quercitin] was tested, and the “Fold Induction of GST activity” value (GST enzyme; 20 ug/mL) was 1.0 fold and the “Induction of NQO1 activity” value (NQO1 enzyme; 20 ug/mL) was 1.4.

In the case of `CC1(C)CC[C@]2(C(=O)O)CC[C@]3(C)C(=CC[C@@H]4[C@@]5(C)CC[C@H](O)C(C)(C)[C@@H]5CC[C@]43C)[C@@H]2C1` [Oleanolic acid], the “HMOX1 Ratio to DMSO” value (heme oxygenase (HMOX1); HepG2 cells, 8 hours, 25 μg/ml) is reported as 1.88, the “Fold Induction of heme oxygenase luciferase activity” value [1] is reported as 2.7 fold and the “expression” value [1] is reported as “induced”. The “Fold Induction of GST activity” value (GST enzyme; 25 ug/mL) was 1.0 fold, the “Phase II (ave) Ratio to DMSO” value ([2]; HepG2 cells, 8 hours, 25 μg/ml, average of GSTA1 and NQO1) was 0.91 and the “Induction of NQO1 activity” value (NQO1 enzyme; 25 ug/mL) was 1.5. For the same compound, the “MT 1,2 (ave) Ratio to DMSO” value ([3]; HepG2 cells, 8 hours, 25 μg/ml) was 2.39.

With Inulin the “Induction of NQO1 activity” value (NQO1 enzyme; 20 ug/mL) was 0.9.

For `N[C@H]1C(O)O[C@H](CO)[C@@H](O)[C@@H]1O` (stereo partly drawn) [Glucosamine], the “Fold Induction of GST activity” value (GST enzyme; 20 ug/mL) was 1.1 fold and the “Induction of NQO1 activity” value (NQO1 enzyme; 20 ug/mL) was 1.0.

`C[S+]([O-])CCCCN=C=S` (stereo not drawn) [Sulforaphane, reference compound] was tested, and the “HMOX1 Ratio to DMSO” value (heme oxygenase (HMOX1)) was 8.82, the “HMOX1 gene induction (in words)” value (heme oxygenase (HMOX1)) was “increased” and the “Fold Induction of heme oxygenase luciferase activity” value [1] was 4.2 fold. The “expression” value [1] was “induced”, the “Fold Induction of GST activity” value (GST enzyme; 3 ug/mL) was 1.8 fold and the “Phase II (ave) Ratio to DMSO” value [2] was 1.84. The “phase II gene induction (in words)” value [2] was “increased”, the “Induction of NQO1 activity” value (NQO1 enzyme; 3 ug/mL) was 3.7 and the “MT 1,2 (ave) Ratio to DMSO” value [3] was 0.67. For the same compound, the “MT gene induction (in words)” value [3] was “but not MT” and the Nrf-2 nuclear translocation (Nrf-2) was “dramatic increase”.
